Source: the NIST ThermoML archive (doi:10.1021/je400835u)
± gives the expanded uncertainty stated by the source.

Assay: xn = mol fraction of the nth substance listed
Conditions: 100 kPa, Liquid; for viscosity: Falling or rolling sphere viscometry; for mass density: Vibrating tube method

CCCCC1CCCCC1 [butylcyclohexane] + CCCCCCC
Conditions | mass density, 293.15 K [kg/m3] | mass density, 298.15 K [kg/m3] | mass density, 303.15 K [kg/m3] | mass density, 308.15 K [kg/m3] | mass density, 313.15 K [kg/m3] | viscosity, 293.15 K [mPa·s] | viscosity, 298.15 K [mPa·s] | viscosity, 303.15 K [mPa·s] | viscosity, 308.15 K [mPa·s] | viscosity, 313.15 K [mPa·s]
x1 = 0.0499 | 691.14 ± 0.17 | 686.96 ± 0.18 | 682.7 ± 0.18 | 678.43 ± 0.18 | 674.27 ± 0.18 | 0.445 ± 0.011 | 0.422 ± 0.01 | 0.404 ± 0.01 | 0.38 ± 0.01 | 0.365 ± 0.01
x1 = 0.0991 | 698.01 ± 0.17 | 693.86 ± 0.17 | 689.65 ± 0.18 | 685.41 ± 0.18 | 681.26 ± 0.18 | 0.477 ± 0.011 | 0.453 ± 0.011 | 0.432 ± 0.01 | 0.408 ± 0.01 | 0.39 ± 0.01
x1 = 0.2001 | 711.59 ± 0.17 | 707.49 ± 0.17 | 703.36 ± 0.17 | 699.21 ± 0.17 | 695.08 ± 0.17 | 0.537 ± 0.011 | 0.51 ± 0.011 | 0.485 ± 0.011 | 0.463 ± 0.011 | 0.44 ± 0.011
x1 = 0.2995 | 724.33 ± 0.17 | 720.29 ± 0.17 | 716.21 ± 0.17 | 712.12 ± 0.17 | 708.05 ± 0.17 | 0.597 ± 0.011 | 0.564 ± 0.011 | 0.533 ± 0.011 | 0.508 ± 0.011 | 0.484 ± 0.011
x1 = 0.4006 | 736.73 ± 0.16 | 732.74 ± 0.16 | 728.7 ± 0.17 | 724.68 ± 0.17 | 720.66 ± 0.17 | 0.665 ± 0.011 | 0.623 ± 0.011 | 0.59 ± 0.011 | 0.56 ± 0.011 | 0.531 ± 0.011
x1 = 0.4984 | 748.17 ± 0.16 | 744.24 ± 0.16 | 740.26 ± 0.16 | 736.29 ± 0.16 | 732.29 ± 0.16 | 0.741 ± 0.011 | 0.694 ± 0.011 | 0.652 ± 0.011 | 0.617 ± 0.011 | 0.584 ± 0.011
x1 = 0.6015 | 759.68 ± 0.16 | 755.81 ± 0.16 | 751.86 ± 0.16 | 747.93 ± 0.16 | 744 ± 0.16 | 0.832 ± 0.012 | 0.776 ± 0.011 | 0.727 ± 0.011 | 0.685 ± 0.011 | 0.646 ± 0.011
x1 = 0.6993 | 770.09 ± 0.16 | 766.25 ± 0.16 | 762.36 ± 0.16 | 758.5 ± 0.16 | 754.58 ± 0.16 | 0.929 ± 0.012 | 0.865 ± 0.012 | 0.808 ± 0.012 | 0.758 ± 0.011 | 0.713 ± 0.011
x1 = 0.7999 | 780.33 ± 0.15 | 776.52 ± 0.15 | 772.68 ± 0.16 | 768.84 ± 0.16 | 764.98 ± 0.16 | 1.042 ± 0.013 | 0.966 ± 0.012 | 0.9 ± 0.012 | 0.842 ± 0.012 | 0.789 ± 0.012
x1 = 0.8999 | 790.07 ± 0.15 | 786.3 ± 0.15 | 782.5 ± 0.15 | 778.7 ± 0.16 | 774.89 ± 0.16 | 1.172 ± 0.013 | 1.083 ± 0.013 | 1.005 ± 0.012 | 0.936 ± 0.012 | 0.875 ± 0.012
x1 = 0.9501 | 794.82 ± 0.15 | 791.06 ± 0.15 | 787.29 ± 0.15 | 783.51 ± 0.15 | 779.72 ± 0.16 | 1.242 ± 0.013 | 1.146 ± 0.013 | 1.059 ± 0.013 | 0.988 ± 0.012 | 0.922 ± 0.012
x1 = 1 | 799.44 ± 0.15 | 795.7 ± 0.15 | 791.95 ± 0.15 | 788.19 ± 0.15 | 784.41 ± 0.15 | 1.296 ± 0.014 | 1.196 ± 0.013 | 1.107 ± 0.013 | 1.027 ± 0.013 | 0.958 ± 0.012
